Reference: US20230381291A1, “TUMOR-ASSOCIATED PEPTIDES AND USES THEREOF” (HUMANITAS MIRASOLE S.P.A., priority 2020, published 2023)
Where a SMILES comes first, the peptide text is derived from it. The star is where a group is joined. Cbz = O=C(OCc1ccccc1)*

Legend:
Type in all cases: cell-based, human
[1] = test system: Salmonella-infected 624-38 melanoma cells; assay: HLA-A*02:01-peptide binding assay on T2 cells (peptide release into supernatant); details: 624-38 cells treated with inhibitor; 4μ8c 10 μM, MG132 20 μM, Epoxomycin 500 nM
Protocol: (§1) In order to elucidate the Salmonella mechanism of action, the present inventors employed several inhibitors in their in vitro experiments, including: Heptanol (Sigma, 1 mM), hemichannel blocker; proteasome inhibitors: MG132 (Sigma, 20 μM) and Epoxomycin (Sigma, 500 nM); UPR-inhibitor 4μ8c (10 μM).
Single bacterial colonies were grown overnight and restarted the next day to reach an absorbance at 600 nm of 0.6 corresponding to 0.6×10^9 colony-forming units (CFUs)/ml. Murine and human melanoma cells were incubated with bacteria for 90 minutes, at a cell-to-bacteria ratio of 1:50, in the appropriate medium added with L-Glutamine without antibiotics. Cells were washed with medium and incubated in medium supplemented with gentamicin ([…]) for 18 hours to kill extracellular bacteria. At the end of the incubation cells were harvested and then lysed for protein analysis while supernatant was collected and filtered through 0.22 μm filter eliminate potentially still alive bacteria.
To assess peptides enrichment in the supernatant from tumor cell cultures following Salmonella treatment, T2 cells were incubated overnight at 37° C. at 2×10^5 cells/well in serum-free RPMI medium either with 100 μL of supernatant or with Mart-126-35 peptide (1 μM and 10 μM) as a positive control. […]

[2] = test system: Salmonella-infected 624-38 melanoma cells; assay: IFN-gamma release by CTL-Vax on Thp1 loaded with conditioned supernatant; details: supernatant of inhibitor-treated Salmonella-infected 624-38 loaded on Thp1, ratio 1:1, 72 hours
Protocol: as §1
(§2) Human acute monocytic leukemia Thp1 cell line was loaded either with antigens at different concentration (20 uM-1.25 uM) or with conditioned medium and used to stimulate CTL-Vax (ratio 1:1). Cells supernatant was collected after 72 hours and IFN-gamma production was measured by ELISA (R&D). IFN-gamma released by CTLs co-cultured with unloaded Thp1 (spontaneous IFN-gamma release) was subtracted from IFN measured upon Ag-stimulation. Specificity of the activation was further assessed using an HLA-I pan blocker as control (10 ug/ml, Clone W6/32).

CTL-Vax = assay: IFN-gamma assay for peptide recognition by CTLs (peptide-loaded Thp1, ELISA); details: synthesized peptides loaded on Thp1 at 20 μM-1.25 μM, ratio 1:1, 72 hours
Protocol: as §2

Compound	peptide release prompted by Salmonella infection (HLA-A*02:01 MFI on T2 cells) [1]	CTL-Vax activation upon supernatant stimulation (IFN-gamma release) [2]	IFN-gamma production by CTL-VAX (CTL-Vax)
Cc1cc(=O)oc2c(C=O)c(O)ccc12 [4μ8c]	significantly impaired peptide release	lower activation	
TMA747-44: candidate peptide from melanoma secretome that did not induce IFN-gamma production by CTL-VAX (AAGKGPLATGGIKKSGKK)			all except TMA747-44 (SEQ ID NO. 5) were able to induce IFN-gamma production
CC(C)C[C@@H](C=O)NC(=O)[C@H](CC(C)C)NC(=O)[C@H](CC(C)C)NC(=O)OCc1ccccc1 [MG132] (Cbz-Leu-Leu-Leu-aldehyde)	affected	affected	
